Data published in patent publication US20240174617A1, “FPR2 (FORMYL PEPTIDE RECEPTOR 2)RECEPTOR AGONISTS AND THEIR USE IN THE TREATMENT OF THE AUTISM SPECTRUM DISORDER” (UNIVERSITA' DEGLI STUDI DI BARI ALDO MORO, priority 2021, published 2024).

Key:
Assay type in all cases: cell-based
[1] = tested on: IL-1β release in mouse microglial N9 cells; assay: IL-1β release (ELISA) in microglial N9 cells
Procedure: (§1) The anti-inflammatory effect of the compounds (S)-4, (S)-7, (S)-8, (S)-9 and (S)-16 was determined by assessing its ability to affect the release of the pro-inflammatory cytokines IL-1β and TNF-α both in the cells under basal conditions and after stimulation with LPS. The mouse microglial N9 cells were seeded in a 96-well plate (2×10^4 cells/well) by using Iscove supplemented with 10% FBS as culture medium. The cells were then treated with different concentrations of the selected compounds (0.5-5 il.M) for 24 hours. The supernatant was then collected and the IL-1β and TNF-a levels were measured by using specific ELISA kits following the instructions of the supplier (R&D Systems, USA). […] Subsequently, the cells were pre-incubated with different concentrations of the selected compounds (0.5-5 μM) and then stimulated with LPS (100 ng/mL) for 24 hours. The control cells were treated with the carrier only. The IL-1β and TNF-α levels were determined as previously described. […] The specificity of the observed effect was assessed by co-incubating the cells with the FPR2 antagonist WRW4.

[2] = tested on: TNF-α release in mouse microglial N9 cells; assay: TNF-α release (ELISA) in microglial N9 cells
Procedure: as §1

[3] = tested on: mouse microglial N9 cells; assay: cell viability (LDH assay) in microglial N9 cells; details: for LDH release activity (cytotoxic effect): basal conditions, 0.5-5 μM, 24 hours (FIG. 4); for cell mortality (LDH release), neuroprotective effect: pre-incubation 0.5-5 μM, then LPS (100 ng/mL) for 24 hours (FIG. 4)
Procedure: Study of the effect of compounds (S)-4, (S)-5, (S)-7, (R)-8, (S)-8, (S)-9, (S)-12, (S)-15 and (S)-16 on the cell viability (LDH assay) in cultures of mouse microglial N9 cells.
The neuroprotective activity of the compounds (S)-4, (S)-5, (S)-7, (R)-8, (S)-8, (S)-9, (S)-12, (S)-15 and (S)-16 was assessed by determining its effect on the cell viability both under basal conditions and following stimulation with bacterial lipopolysaccharide (LPS) toxin. The mouse microglial N9 cells were seeded in a 96-well plate (2x10^4 cells/well) by using RPMI supplemented with 1% fetal bovine serum (FBS) as culture medium. The cells were incubated for 24 hours with different concentrations of the selected compounds (0.5-5 μM) to assess the potential cytotoxic effect of the compounds. The control cells were treated with the carrier only. To quantify the cell mortality, the level of lactate dehydrogenase (LDH) release after 24 hours of treatment was determined. The supernatant of the cell cultures was taken and incubated for 20 minutes at room temperature with the appropriate mixture of reagents according to the instructions of the supplier of the assessment kit (Cytotoxicity Detection Kit, Roche, Germany). The LDH release activity was determined as conversion of lactate to pyruvate by a colorimetric test (X=490 nm, Infinite 200 PRO Detector, TECAN, Switzerland). The LDH release activity is proportional to the 25 number of damaged cells. […] Subsequently, the cells were pre-incubated with different concentrations of the selected compounds (0.5-5 μM) and then stimulated with LPS (100 ng/mL) for 24 hours. The control cells were treated with the carrier only. The cell viability at the end 30 of 24 hours was assessed as previously described.

[4] = basal conditions, 0.5-5 μM, 24 hours (FIG. 5)
[5] = pre-incubation 0.5-5 μM, then LPS (100 ng/mL) for 24 hours (FIG. 5)
[6] = basal conditions, 0.5-5 μM, 24 hours (FIG. 6)
[7] = pre-incubation 0.5-5 μM, then LPS (100 ng/mL) for 24 hours (FIG. 6)

Row | SMILES | IL-1β release [1, 4] | IL-1β release [1, 5] | TNF-α release [2, 6] | TNF-α release [2, 7] | LDH release activity (cytotoxic effect) [3] | cell mortality (LDH release), neuroprotective effect [3]
1 | N#Cc1ccc(C[C@H](NC(=O)Nc2ccc(F)cc2)C(=O)N2CCc3ccc(F)cc32)cc1 [(S)-8, (S)-1-(3-(4-Cyanophenyl)-1-(6-fluoroindolin-1-yl)-1-oxopropan-2-yl)-3-(4-fluorophenyl)urea] | do not cause increased release of the two cytokines | reduce the release of inflammatory cytokines | do not cause increased release of the two cytokines | reduce the release of inflammatory cytokines | do not increase the LDH release activity | reduce the cell mortality effect caused by the stimulation with LPS
2 | N#Cc1ccc(C[C@H](NC(=O)Nc2ccc(F)cc2)C(=O)NC2CCCCNC2=O)cc1 (stereo partly drawn) [(S)-4, (2S)-3-(4-Cyanophenyl)-2-(3-(4-fluorophenyl)ureido)-N-(2-oxoazepan-3-yl)propanamide] | do not cause increased release of the two cytokines | reduce the release of inflammatory cytokines | do not cause increased release of the two cytokines | reduce the release of inflammatory cytokines | do not increase the LDH release activity | reduce the cell mortality effect caused by the stimulation with LPS
3 | N#Cc1ccc(C[C@H](NC(=O)Nc2ccc(F)cc2)C(=O)N2CCc3cc(F)ccc32)cc1 [(S)-9, (S)-1-(3-(4-Cyanophenyl)-1-(5-fluoroindolin-1-yl)-1-oxopropan-2-yl)-3-(4-fluorophenyl)urea] | do not cause increased release of the two cytokines | reduce the release of inflammatory cytokines | do not cause increased release of the two cytokines | reduce the release of inflammatory cytokines | do not increase the LDH release activity | reduce the cell mortality effect caused by the stimulation with LPS
4 | N#Cc1ccc(C[C@H](NC(=O)Nc2ccc(F)cc2)C(=O)N2CCc3ccccc32)cc1 [(S)-7, (S)-1-(3-(4-Cyanophenyl)-1-(indolin-1-yl)-1-oxopropan-2-yl)-3-(4-fluorophenyl)urea] | do not cause increased release of the two cytokines | reduce the release of inflammatory cytokines | do not cause increased release of the two cytokines | reduce the release of inflammatory cytokines | do not increase the LDH release activity | reduce the cell mortality effect caused by the stimulation with LPS
